Measured values from patent publication US4694069A, “Kibdelosporangium aridum SK&F-AAD-609” (SmithKline Beckman Corporation, priority 1985, dated 1987).
Values after ≈ are worked out from the molar mass of the structure shown. Read-outs that look alike come from different tables or passages of the source.

Experiments:
[1] = comparators, source not given; cited from earlier work
Clostridium difficile = experiment: In vitro MIC, standard microtiter assay; assay type: cell-based; conditions: Clostridioides difficile; Table A; read-out: MIC
Description: (§1) In vitro minimum inhibitory concentrations (MIC) of the AAD-609 complex and of Factors A, B, CC2 and D, using standard microtiter assay procedures, against a number of microorganisms are reported in Table A, which follows.

Escherichia coli 12140 = experiment: In vitro MIC, standard microtiter assay; assay type: cell-based; conditions: Escherichia coli, 12140; Table A; read-out: MIC
Description: as §1

S. epidermidis 2265 = experiment: In vitro MIC, standard microtiter assay; assay type: cell-based; conditions: Staphylococcus epidermidis, 2265; Table A; read-out: MIC
Description: as §1

S. epidermidis 2479 = experiment: In vitro MIC, standard microtiter assay; assay type: cell-based
Description: as §1

S. epidermidis 2683 = experiment: In vitro MIC, standard microtiter assay; assay type: cell-based; conditions: Staphylococcus epidermidis, 2683; Table A; read-out: MIC
Description: as §1

[2] = tested on: S. epidermidis 651 (methicillin resistant strain); experiment: In vitro MIC, standard microtiter assay; assay type: cell-based; conditions: methicillin resistant strain
Description: as §1

[3] = tested on: Salmonella gallinarum BC-595; experiment: In vitro MIC, standard microtiter assay; assay type: cell-based; conditions: Salmonella enterica, GALLINARUM; Table A; read-out: MIC
Description: as §1

[4] = tested on: Staphylococcus aureus HH127; experiment: In vitro MIC, standard microtiter assay; assay type: cell-based
Description: as §1

[5] = tested on: Streptococcus faecalis 657; experiment: In vitro MIC, standard microtiter assay; assay type: cell-based; conditions: Enterococcus faecalis, 657; Table A; read-out: MIC
Description: as §1

S. aureus 209P = experiment: In vitro MIC, standard microtiter assay; assay type: cell-based, Staphylococcus aureus; conditions: Staphylococcus aureus, 209P; Table A; read-out: MIC
Description: as §1

S. aureus 674 = experiment: In vitro MIC, standard microtiter assay; assay type: cell-based, Staphylococcus aureus; conditions: Staphylococcus aureus, 674; Table A; read-out: MIC
Description: as §1

S. aureus 675 = experiment: In vitro MIC, standard microtiter assay; assay type: cell-based, Staphylococcus aureus; conditions: Staphylococcus aureus, 675; Table A; read-out: MIC
Description: as §1

[6] = tested on: S. aureus 910 (methicillin resistant strain); experiment: In vitro MIC, standard microtiter assay; assay type: cell-based, Staphylococcus aureus; conditions: Staphylococcus aureus; Table A; methicillin resistant strain; read-out: MIC
Description: as §1

S. faecalis 34358 = experiment: In vitro MIC, standard microtiter assay; assay type: cell-based, Streptococcus faecalis
Description: as §1

[7] = tested on: S. aureus 2620 (methicillin resistant strain); experiment: MIC; assay type: cell-based; conditions: Staphylococcus aureus; Table B; methicillin resistant strain; read-out: MIC
Description: as §1

[8] = tested on: rumen fermentation (strained rumen fluid); experiment: Rumen in vitro model; design: species or system steer; conditions: for AAN (alpha amino nitrogen) / AMO (ammonia nitrogen) / LYS (lysine): 6 h; for % PR (percent propionate) / ACE (acetate) / BUT (butyrate) / ETOH (ethanol) / IBU (isobutyrate) / IVA (isovalerate) / PRO (propionate) / TOTAL (total volatile fatty acids) / VAL: 24 h
Method: The AAD-609 antibiotics were characterized in a rumen in vitro model to assess their potential as feed additives for ruminants. […] Specifically, strained rumen fluid (10 ml) obtained from a fistulated steer receiving a roughage ration, was mixed with 10 ml of nutrient broth (20 mg casein hydrolysate, 100 mg maltose, 15 mg urea, 400 mg solka floc (cellulose), 100 mg cellobiose and 100 mg starch) and with a selected growth promotant and incubated at 39° C., with oscillation, for 24 hours. […] Measurement of AMO, LYS and AAN was done with a sample taken from the incubation flask after 6 hours.

[9] = tested on: mixed intestinal microflora (cecum fluid); experiment: Swine in vitro model; conditions: one level, up to 166.67 ppm; 4-5 h
Method: A swine in vitro model was used to characterize AAD-609 antibiotics as potential feed additives in swine and poultry. Mixed intestinal microflora were obtained from ileally-cannulated pigs. Virginiamycin, carbadox, AAD-216 and its components, and AAD-609 Complex (containing less than 5% AAD-216 antibiotics) were tested at one level. […] Glucose (GLU) was spared from microbial degradation. Volatile fatty acids (TOTAL) were the major end-product of microbial metabolism while lactic acid production were reduced. […] Since AAD-609 and AAD-216 give similar in vitro results, it is expected that AAD-609 has similar growth-promoting activity in monogastric animals. Also, the in vitro activity of AAD-609 is similar to the activity previously observed with bacitracin in this model.
The swine in vitro model was carried out by incubating 1.5 ml of cecum fluid, from a swine fed normal rations, mixed with 1.5 ml of a nutrient broth (3 mg casein hydrolysate, 30 mg maltose, 1.25 mg urea, 0.5 mg lysine, and 30 mg cellobiose) and with up to 166.67 parts per million of a selected growth promotant at 39° C., with oscillation, for about 4-5 hours. Results, percentage of control, are reported in the following table in which all abbreviations are as above except that LLA means L-lactate and ETOH means ethanol.

Pharmacokinetics in mice = conditions: mice
[10] = pKa by potentiometric titration; conditions: 30:70 acetonitrile:water, apparent values, AAD-216A averaged previous results

In the case of ristocetin, the Isoelectric point [1] is listed as 8.4.
Compound `CCCCCCCCCC(=O)NC1C(Oc2c3cc4cc2Oc2c(Cl)cc(cc2Cl)C(O)C2NC(=O)C(NC(=O)C4NC(=O)C4NC(=O)C(NC(=O)C(NC)c5ccc(O)c(c5)Oc5cc(O)c(Cl)c4c5)C(O)c4ccc(c(Cl)c4)O3)c3ccc(O)c(c3)-c3c(OC4OC(CO)C(O)C(O)C4O)cc(O)cc3C(C(=O)O)NC2=O)OC(C(=O)O)C(O)C1O` (stereo not drawn) [AAD-216 A] has an MIC (Clostridium difficile) of 0.25 µg/mL (≈ 0.14 µM), an MIC (Escherichia coli 12140) of over 100 µg/mL and an MIC (S. epidermidis 2265) of 50 µg/mL (≈ 27.9 µM). The MIC (S. epidermidis 2479; Staphylococcus epidermidis, 2479, Table A, read-out: MIC) was 25 µg/mL (≈ 14 µM), the MIC (S. epidermidis 2479; Table B) was 25 µg/mL (≈ 14 µM) and the MIC (S. epidermidis 2683) was 50 µg/mL (≈ 27.9 µM). For the same compound, the MIC ([2]; Staphylococcus epidermidis, Table A, read-out: MIC) was 100 µg/mL (≈ 55.9 µM), the MIC ([2]; Table B) was 100 µg/mL (≈ 55.9 µM) and the MIC [3] was over 100 µg/mL. For the same compound, the MIC ([4]; Staphylococcus aureus, HH127, Table A, read-out: MIC) was 3.1 µg/mL (≈ 1.73 µM), the MIC ([4]; Table B) was 3.1 µg/mL (≈ 1.73 µM) and the MIC [5] was 0.8 µg/mL (≈ 0.447 µM). The MIC (S. aureus 209P) was 0.8 µg/mL (≈ 0.447 µM), the MIC (S. aureus 674) was 3.1 µg/mL (≈ 1.73 µM) and the MIC (S. aureus 675) was 12.5 µg/mL (≈ 6.99 µM). It also gave an MIC [6] of 3.1 µg/mL (≈ 1.73 µM), an MIC (S. faecalis 34358; Enterococcus faecalis, 34358, Table A, read-out: MIC) of 0.4 µg/mL (≈ 0.224 µM) and an MIC (S. faecalis 34358; Table B) of 0.4 µg/mL (≈ 0.224 µM). For the same compound, the MIC [7] was 4 µg/mL (≈ 2.24 µM), the “AAN (alpha amino nitrogen)” value ([8]; 0.50 ppm) was 76 % of control and the “AMO (ammonia nitrogen)” value ([8]; 0.50 ppm) was 102 % of control. The “LYS (lysine)” value ([8]; 0.50 ppm) was 108 % of control, the “% PR (percent propionate)” value ([8]; 0.50 ppm) was 106 % of control and the “ACE (acetate)” value ([8]; 0.50 ppm) was 96 % of control. For the same compound, the “BUT (butyrate)” value ([8]; 0.50 ppm) was 100 % of control, the “ETOH (ethanol)” value ([8]; 0.50 ppm) was 0 % of control and the “IBU (isobutyrate)” value ([8]; 0.50 ppm) was 125 % of control. The “IVA (isovalerate)” value ([8]; 0.50 ppm) was 124 % of control, the “PRO (propionate)” value ([8]; 0.50 ppm) was 107 % of control and the “TOTAL (total volatile fatty acids)” value ([8]; 0.50 ppm) was 101 % of control. The “AAN (alpha amino nitrogen)” value ([8]; 5.00 ppm) was 153 % of control, the “AMO (ammonia nitrogen)” value ([8]; 5.00 ppm) was 101 % of control and the “LYS (lysine)” value ([8]; 5.00 ppm) was 144 % of control. The “% PR (percent propionate)” value ([8]; 5.00 ppm) was 148 % of control, the “ACE (acetate)” value ([8]; 5.00 ppm) was 105 % of control and the “BUT (butyrate)” value ([8]; 5.00 ppm) was 81 % of control. The “ETOH (ethanol)” value ([8]; 5.00 ppm) was 0 % of control, the “IBU (isobutyrate)” value ([8]; 5.00 ppm) was 75 % of control and the “IVA (isovalerate)” value ([8]; 5.00 ppm) was 48 % of control. The “PRO (propionate)” value ([8]; 5.00 ppm) was 153 % of control, the “TOTAL (total volatile fatty acids)” value ([8]; 5.00 ppm) was 103 % of control and the VAL ([8]; 5.00 ppm) was 56 % of control. For the same compound, the “AAN (alpha amino nitrogen)” value ([8]; 50.00 ppm) was 195 % of control, the “AMO (ammonia nitrogen)” value ([8]; 50.00 ppm) was 109 % of control and the “LYS (lysine)” value ([8]; 50.00 ppm) was 168 % of control. For the same compound, the “% PR (percent propionate)” value ([8]; 50.00 ppm) was 140 % of control, the “ACE (acetate)” value ([8]; 50.00 ppm) was 93 % of control and the “BUT (butyrate)” value ([8]; 50.00 ppm) was 87 % of control. For the same compound, the “ETOH (ethanol)” value ([8]; 50.00 ppm) was 0 % of control, the “IBU (isobutyrate)” value ([8]; 50.00 ppm) was 112 % of control and the “IVA (isovalerate)” value ([8]; 50.00 ppm) was 98 % of control. For the same compound, the “PRO (propionate)” value ([8]; 50.00 ppm) was 138 % of control, the “TOTAL (total volatile fatty acids)” value ([8]; 50.00 ppm) was 98 % of control and the VAL ([8]; 50.00 ppm) was 26 % of control. The “% PR (percent propionate)” value [9] was 117 % of control, the “ACE (acetate)” value [9] was 200 % of control and the “BUT (butyrate)” value [9] was 147 % of control. For the same compound, the “ETOH (ethanol)” value [9] was 167 % of control, the “GLU (glucose)” value [9] was 180 % of control and the “IBU (isobutyrate)” value [9] was 0 % of control. For the same compound, the “IVA (isovalerate)” value [9] was 0 % of control, the “LLA (L-lactate)” value [9] was 2 % of control and the “LYS (lysine)” value [9] was 35 % of control. The “PRO (propionate)” value [9] was 276 % of control, the “TOTAL (total volatile fatty acids)” value [9] was 236 % of control and the VAL [9] was 0 % of control. The Elimination half-life (Pharmacokinetics in mice) was 3.77 h, the Maximum serum concentration (Pharmacokinetics in mice) was 121 µg/mL and the “pKa (A) carboxyl on aglycone” value [10] was 3.0. For the same compound, the “pKa (B) carboxyl on side chain” value [10] was 4.9, the “pKa (C) amino group on aglycone” value [10] was 7.4 and the “pKa (D) phenolic OH” value ([10]; first phenolic OH) was 8.4. For the same compound, the “pKa (D) phenolic OH” value ([10]; second phenolic OH) was 10.0 and the “pKa (D) phenolic OH” value ([10]; third phenolic OH) was 10.3.
